Common to all, as to assay type: cell-based
For one experiment, the system named is Vibrio cholerae. The experiment can be described thus: Viable bacteria remaining after 15 seconds of contact with the actives. To be noted: 15 seconds contact, culture added 7.58. The protocol: (§1) About 10^7 bacterial cells (E. coli ATCC 10536) were taken in a test tube and contacted with various compositions for a period of 15 seconds. Bacteria were taken out after 15 seconds of contact and presence of viable cells was determined by serial dilution and plating on agar plates. The data is presented in log (Viable E. Coli) which is the log10 of the number of viable E. Coli remaining after 15 seconds of contact. Thus if 10^4 remained, log (Viable E. Coli) is 4.
(§2) The combination of thymol (0.2%) and terpineol (0.5%) was tested for its efficacy in inhibiting growth of various other bacteria after they are contacted with this combination for about 15 seconds. Similar experiments were carried out with another well known antibacterial active TCC (trichloro carbanilide). The experiments were carried out similar to those of Examples 1 to 3 and the data on the viable bacteria remaining after contact with the actives for 15 seconds is summarized in Table 3

Another experiment relates to Entereobacter. Described as above. To be noted: 15 seconds contact, culture added 6.87. The protocol:
as §1, §2

The test system of another experiment is Klebsiella. Described as above. To be noted: 15 seconds contact, culture added 7.35. As to the method:
as §1, §2

The subject of a further experiment is Salmonella. The description is as above. As to conditions: 15 seconds contact, culture added 7.63. The protocol: as §1, §2
A further experiment concerns E. coli ATCC 10536. Briefly: Bacterial kill in test tube after 15 seconds of contact, serial dilution and plating. To be noted: log10 of viable E. coli remaining after 15 seconds of contact; about 10^7 cells initially; water as carrier. The protocol: Compositions comprising each individual active and a combination were prepared with water as a carrier (details given in Table 1 below). Terpineol and thymol were obtained from […] aromas, India. […] The data is presented in log (Viable E. Coli) which is the log10 of the number of viable E. […] Eucalyptol and linalool were obtained from Fluka. […] The data in log (Viable E.

Experiment [1] deals with Streptococcus mutans ATCC 25175. Briefly: Oxoplate oxygen depletion growth assay. As to conditions: no oxygen depletion over 18 hours. The protocol:
(§3) The anti-bacterial activity of the composition of the invention against a commonly found Gram positive oral bacteria viz. Streptococcus mutans ATCC 25175 and a Gram negative oral bacteria Neisseria subflava ATCC 19243) was determined. This was investigated using Oxoplates. Oxoplates monitor oxygen depletion within the reaction system (containing bacteria, broth and actives).
(§4) A Gram positive (Streptococcus mutans ATCC 25175) and a Gram negative (Neisseria subflava ATCC 19243) bacterium were selected for testing the active solutions. Both bacteria were grown on BHIS agar plates for 24 hours at 37° C./15% CO2, they were then suspended in PBS to a McFarland standard of 2 (˜6×10^8 cells).
(§5) Each active was dissolved in 50% ethanol solutions for testing. All solutions were made at 10 times concentrated to allow for dilution in the plate. Reduced concentrations were used for N. subflava due to the greater sensitivity of this organism to biocides,
(§6) The following components were placed into the wells of the Oxoplates, • 170 µl BHI broth • 20 µl test solution • 10 µl bacteria
(§7) The broth was placed into the Oxoplate first, followed by the test solution, and then the bacterium. Water or 50% ethanol controls were also used in each plate. All solutions were tested in replicates of four. The plates were placed into the fluorescent plate reader, incubated at 37° C. and measured every 15 minutes for 18 hours. The sensors on the bottom of the wells were measured at 2 wavelengths, • Indicator (650/[…]) • Reference (590/540 nm).
(§8) The oxygen concentration was calculated using these values and a calibration performed for maximum and minimum oxygen concentration. A graph was then plotted of the oxygen depletion curves over the 18 hour period, which was used to determine the level at which the bacteria start to deplete the oxygen.

Experiment [2] deals with Neisseria subflava ATCC 19243. Briefly: Oxoplate oxygen depletion growth assay. As to conditions: no oxygen depletion over 18 hours. As to the method:
as §3, §4, §5, §6, §7, §8

Take `O=C(Nc1ccc(Cl)cc1)Nc1ccc(Cl)c(Cl)c1` [0.2% TCC, trichloro carbanilide]: the viable bacteria remaining is 7.20 Log (CFU/ml) in the experiment on Vibrio cholerae, 6.87 Log (CFU/ml) in the experiment on Entereobacter, 7.28 Log (CFU/ml) in the experiment with Klebsiella and 7.33 Log (CFU/ml) with Salmonella.

For `Cc1ccc(C(C)C)c(O)c1` [Example 1, Thymol], the “Log (Viable E. coli)” value in the experiment on E. coli ATCC 10536 is given as 3.1.

Regarding `Cc1ccc(C(C)C)c(O)c1` [Example 25, Thymol], the “Concentration of active (wt %) at no growth” value in experiment [1] (thymol concentration) is listed as “Thymol (0.08%) wt %”.

As for `Cc1ccc(C(C)C)c(O)c1` [Example 28, Thymol], the “Concentration of active (wt %) at no growth” value in experiment [2] (thymol concentration) was “Thymol (0.02%) wt %”. Consider Terpineol [Example 2], for which, in the experiment on E. coli ATCC 10536, the “Log (Viable E. coli)” value is on record as 6.3. Consider Terpineol [Example 24], for which, in experiment [1] (terpineol concentration), the “Concentration of active (wt %) at no growth” value is recorded as “Terpineol (0.4%) wt %”. Consider Terpineol [Example 27], for which the “Concentration of active (wt %) at no growth” value in experiment [2] (terpineol concentration) is “Terpineol (0.08%) wt %”.

The values are drawn from patent US8945596B2, “Antimicrobial composition” (Conopco, Inc., priority 2008, dated 2015).
